Laboratory results taken from patent US9073911B2, “Pyrazole derivatives” (HOFFMANN-LA ROCHE INC., priority 2011, dated 2015).
Counter-ions that a name gives are not always drawn.

Legend:
[1] = molecular target: rat TAAR1 (Rattus norvegicus (Rat), UniProt Q923Y9); assay: Radioligand binding assay on rat TAAR1; details: for Ki: membranes of HEK-293 cells stably expressing rat TAAR1, second value of cell mouse/rat
Description: (§1) Construction of TAAR Expression Plasmids and Stably Transfected Cell Lines
(§2) For the construction of expression plasmids the coding sequences of human, rat and mouse TAAR 1 were amplified from genomic DNA essentially as described by Lindemann et al.. The Expand High Fidelity PCR System (Roche Diagnostics) was used with 1.5 mM Mg^2+ and purified PCR products were cloned into pCR2.1-TOPO cloning vector (Invitrogen) following the instructions of the manufacturer. PCR products were subcloned into the pIRESneo2 vector (BD Clontech, Palo Alto, Calif.), and expression vectors were sequence verified before introduction in cell lines.
(§3) HEK293 cells (ATCC # CRL-1573) were cultured essentially as described by Lindemann et al. (2005). For the generation of stably transfected cell lines HEK293 cells were transfected with the pIRESneo2 expression plasmids containing the TAAR coding sequences (described above) with Lipofectamine 2000 (Invitrogen) according to the instructions of the manufacturer, and 24 hrs post transfection the culture medium was supplemented with 1 mg/ml G418 (Sigma, Buchs, Switzerland). After a culture period of about 10 d clones were isolated, expanded and tested for responsiveness to trace amines (all compounds purchased from Sigma) with the cAMP Biotrak Enzyme immunoassay (EIA) System (Amersham) following the non-acetylation EIA procedure provided by the manufacturer.
Radioligand Binding Assay on rat TAAR1
(§4) Membrane Preparation and Radioligand Binding.
HEK-293 cells stably expressing rat TAAR1 were maintained at 37° C. and 5% CO2 in DMEM high glucose medium, containing fetal calf serum (10%, heat inactivated for 30 min at 56° C.), penicillin/streptomycin (1%), and 375 μg/ml geneticin (Gibco). Cells were released from culture flasks using trypsin/EDTA, harvested, washed twice with ice-cold PBS (without Ca^2+ and Mg^2+), pelleted at 1,000 rpm for 5 min at 4° C., frozen and stored at −80° C. Frozen pellets were suspended in 20 ml HEPES-NaOH (20 mM, pH 7.4) containing 10 mM EDTA and homogenized with a Polytron (PT 6000, Kinematica) at 14,000 rpm for 20 s. The homogenate was centrifuged at 48,000×g for 30 min at 4° C. Subsequently, the supernatant was removed and discarded, and the pellet resuspended in 20 ml HEPES-NaOH (20 mM, pH 7.4) containing 0.1 mM EDTA using the Polytron (20 s at 14,000 rpm). This procedure was repeated and the final pellet resuspended in HEPES-NaOH containing 0.1 mM EDTA and homogenized using the Polytron. Typically, aliquots of 2 ml membrane portions were stored at −80° C. With each new membrane batch the dissociation constant (Kd) was determined via a saturation curve.
Nonspecific binding was defined as the amount of ^3-[H]-(S)-4-[(ethyl-phenyl-amino)-methyl]-4,5-dihydro-oxazol-2-ylamine bound in the presence of 10 μM unlabeled ligand. All compounds were tested at a broad range of concentrations (10 pM to 10 μM) in duplicates. […] The 96 deep well plates were incubated for 1 hr at 4° C. Incubations were terminated by rapid filtration through Unifilter-96 plates (Packard Instrument Company) and glass filters GF/C (Perkin Elmer) presoaked for 1 hr in polyethylenimine (0.3%) and washed 3 times with 1 ml of cold binding buffer. After addition of 45 μl of Microscint 40 (PerkinElmer) the Unifilter-96 plate was sealed and after 1 hr the ratioactivity counted using a TopCount Microplate Scintillation Counter (Packard Instrument Company).

[2] = molecular target: mouse TAAR1 (Mus musculus (Mouse), UniProt Q923Y8); assay: Radioligand binding assay on mouse TAAR1; details: for Ki: membranes of HEK-293 cells stably expressing mouse TAAR1, first value of cell mouse/rat
Description: as §1, §2, §3
Radioligand Binding Assay on Mouse TAAR1
as §4
HEK-293 cells stably expressing mouse TAAR1 were maintained at 37° C. and 5% CO2 in DMEM high glucose medium, containing fetal calf serum (10%, heat inactivated for 30 min at 56° C.), penicillin/streptomycin (1%), and 375 μg/ml geneticin (Gibco). Cells were released from culture flasks using trypsin/EDTA, harvested, washed twice with ice-cold PBS (without Ca^2+ and Mg^2+), pelleted at 1,000 rpm for 5 min at 4° C., frozen and stored at −80° C. Frozen pellets were suspended in 20 ml HEPES-NaOH (20 mM, pH 7.4) containing 10 mM EDTA and homogenized with a Polytron (PT 6000, Kinematica) at 14,000 rpm for 20 s. The homogenate was centrifuged at 48,000×g for 30 min at 4° C. Subsequently, the supernatant was removed and discarded, and the pellet resuspended in 20 ml HEPES-NaOH (20 mM, pH 7.4) containing 0.1 mM EDTA using the Polytron (20 s at 14,000 rpm). This procedure was repeated and the final pellet resuspended in HEPES-NaOH containing 0.1 mM EDTA and homogenized using the Polytron. Typically, aliquots of 2 ml membrane portions were stored at −80° C. With each new membrane batch the dissociation constant (Kd) was determined via a saturation curve. The TAAR1 radioligand ^3[H]—(S)-4-[(ethyl-phenyl-amino)-methyl]-4,5-dihydro-oxazol-2-ylamine (described in WO 2008/098857) was used at a concentration equal to the calculated Kd value, that was usually around 0.7 nM, resulting in the binding of approximately 0.5% of the radioligand and a specific binding representing approximately 70% of the total binding. Nonspecific binding was defined as the amount of ^3[H]—(S)-4-[(ethyl-phenyl-amino)-methyl]-4,5-dihydro-oxazol-2-ylamine bound in the presence of 10 μM unlabeled ligand. All compounds were tested at a broad range of concentrations ([…]) in duplicates. […] The 96 deep well plates were incubated for 1 hr at 4° C. Incubations were terminated by rapid filtration through Unifilter-96 plates (Packard Instrument Company) and glass filters GF/C (Perkin Elmer) presoaked for 1 hr in polyethylenimine (0.3%) and washed 3 times with 1 ml of cold binding buffer. After addition of 45 μl of Microscint 40 (PerkinElmer) the Unifilter-96 plate was sealed and after 1 hr the radioactivity counted using a TopCount Microplate Scintillation Counter (Packard Instrument Company).

Sequence of mouse TAAR1 (Q923Y8 whole entry): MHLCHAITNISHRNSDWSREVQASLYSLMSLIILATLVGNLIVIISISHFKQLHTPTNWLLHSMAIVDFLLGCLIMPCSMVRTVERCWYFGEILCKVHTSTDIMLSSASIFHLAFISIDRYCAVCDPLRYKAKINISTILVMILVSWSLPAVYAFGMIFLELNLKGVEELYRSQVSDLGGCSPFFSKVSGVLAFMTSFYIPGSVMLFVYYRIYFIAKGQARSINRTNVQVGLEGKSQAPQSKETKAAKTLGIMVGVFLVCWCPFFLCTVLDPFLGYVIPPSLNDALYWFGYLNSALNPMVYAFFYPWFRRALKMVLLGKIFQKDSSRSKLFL
Sequence of rat TAAR1 (Q923Y9 whole entry): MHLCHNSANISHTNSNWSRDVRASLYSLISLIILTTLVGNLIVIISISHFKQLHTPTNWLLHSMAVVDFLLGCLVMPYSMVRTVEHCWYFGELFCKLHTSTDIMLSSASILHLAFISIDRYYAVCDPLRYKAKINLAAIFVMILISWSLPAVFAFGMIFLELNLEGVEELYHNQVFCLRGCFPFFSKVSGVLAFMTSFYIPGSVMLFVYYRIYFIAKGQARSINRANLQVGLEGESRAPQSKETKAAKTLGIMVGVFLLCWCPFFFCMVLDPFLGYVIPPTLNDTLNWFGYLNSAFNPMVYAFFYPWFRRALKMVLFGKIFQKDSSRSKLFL

| Structure (SMILES) | Ki [1] [µM] | Ki [2] [µM] | Kd ([1]; rat TAAR1 membranes, saturation curve, usual value, read-out: calculated Kd value of the TAAR1 radioligand) [nM] | Kd ([2]; mouse TAAR1 membranes, saturation curve, usual value, read-out: calculated Kd value of the TAAR1 radioligand) [nM] |
| --- | --- | --- | --- | --- |
| N#Cc1ccc(-n2ccc(C(=O)Nc3ccc([C@H]4CNCCO4)cc3)n2)cc1 [Example 34, (S)-1-(4-Cyanophenyl)-N-(4-(morpholin-2-yl)phenyl)-1H-pyrazole-3-carboxamide hydrochloride] | 0.0092 | 0.0037 |  |  |
| O=C(Nc1ccc([C@H]2CNCCO2)cc1)c1ccn(-c2cncc(C(F)(F)F)n2)n1 [Example 52, (S)—N-(4-(Morpholin-2-yl)phenyl)-1-(6-(trifluoromethyl)pyrazin-2-yl)-1H-pyrazole-3-carboxamide hydrochloride] | 0.0074 | 0.0084 |  |  |
| Cn1nc(-c2ccccc2)cc1C(=O)Nc1ccc([C@H]2CNCCO2)cc1 [Example 5, (S)-1-methyl-N-(4-(morpholin-2-yl)phenyl)-3-phenyl-1H-pyrazole-5-carboxamide hydrochloride] | 0.0045 | 0.0072 |  |  |
| O=C(Nc1ccc([C@H]2CNCCO2)cc1)c1cc(-c2ccccc2)[nH]n1 [Example 1, (S)—N-(4-(morpholin-2-yl)phenyl)-5-phenyl-1H-pyrazole-3-carboxamide hydrochloride] | 0.0043 | 0.0007 |  |  |
| N#Cc1cccc(-c2cc(C(=O)Nc3ccc([C@H]4CNCCO4)cc3)[nH]n2)c1F [Example 43, (S)-3-(3-Cyano-2-fluorophenyl)-N-(4-(morpholin-2-yl)phenyl)-1H-pyrazole-5-carboxamide hydrochloride] | 0.011 | 0.0016 |  |  |
| N#Cc1cnc(-n2ccc(C(=O)Nc3ccc([C@H]4CNCCO4)cc3)n2)cn1 [Example 53, (S)-1-(5-Cyanopyrazin-2-yl)-N-(4-(morpholin-2-yl)phenyl)-1H-pyrazole-3-carboxamide hydrochloride] | 0.0298 | 0.011 |  |  |
| COc1cccc(-c2cc(C(=O)Nc3ccc([C@H]4CNCCO4)cc3)n[nH]2)c1 [Example 4, (S)-3-(3-methoxyphenyl)-N-(4-(morpholin-2-yl)phenyl)-1H-pyrazole-5-carboxamide hydrochloride] | 0.0022 | 0.001 |  |  |

More lines, now with the values ahead:

| Ki [1] [µM] | Ki [2] [µM] | Kd ([1]; rat TAAR1 membranes, saturation curve, usual value, read-out: calculated Kd value of the TAAR1 radioligand) [nM] | Kd ([2]; mouse TAAR1 membranes, saturation curve, usual value, read-out: calculated Kd value of the TAAR1 radioligand) [nM] | Structure (SMILES) |
| --- | --- | --- | --- | --- |
| 0.0127 | 0.0026 |  |  | COc1ccc(-c2cc(C(=O)Nc3ccc([C@H]4CNCCO4)cc3)[nH]n2)cc1OC [Example 11, (S)-3-(3,4-dimethoxyphenyl)-N-(4-(morpholin-2-yl)phenyl)-1H-pyrazole-5-carboxamide hydrochloride] |
| 0.0004 | 0.0005 |  |  | O=C(Nc1ccc([C@@H]2CNCCO2)cc1)c1cc(-c2ccc(Cl)cc2)n[nH]1 [Example 12, (R)-3-(4-chlorophenyl)-N-(4-(morpholin-2-yl)phenyl)-1H-pyrazole-5-carboxamide hydrochloride] |
| 0.0142 | 0.0067 |  |  | Cn1nc(-c2cccc(C#N)c2)cc1C(=O)Nc1ccc([C@H]2CNCCO2)cc1 [Example 24, (S)-3-(3-cyanophenyl)-1-methyl-N-(4-(morpholin-2-yl)phenyl)-1H-pyrazole-5-carboxamide hydrochloride] |
| 0.0013 | 0.0005 |  |  | O=C(Nc1ccc([C@H]2CNCCO2)cc1)c1cc(-c2cccc(OC(F)F)c2)n[nH]1 [Example 40, (S)-3-(3-(Difluoromethoxy)phenyl)-N-(4-(morpholin-2-yl)phenyl)-1H-pyrazole-5-carboxamide hydrochloride] |
| 0.0028 | 0.0079 |  |  | Cn1nc(-c2ccccc2)cc1C(=O)Nc1ccc([C@@H]2CNCCO2)cc1 [Example 19, (R)-1-methyl-N-(4-(morpholin-2-yl)phenyl)-3-phenyl-1H-pyrazole-5-carboxamide hydrochloride] |
|  |  | ~2.3 | ~0.7 | CCN(C[C@H]1COC(N)=N1)c1ccccc1 [^3[H]—(S)-4-[(ethyl-phenyl-amino)-methyl]-4,5-dihydro-oxazol-2-ylamine, reference compound] |
| 0.0262 | 0.0663 |  |  | Cn1nc(-c2cccc(OC(F)F)c2)cc1C(=O)Nc1ccc([C@H]2CNCCO2)cc1 [Example 44, (S)-3-(3-(Difluoromethoxy)phenyl)-1-methyl-N-(4-(morpholin-2-yl)phenyl)-1H-pyrazole-5-carboxamide hydrochloride] |
